Source: PMC7462985, “Inhibitors of BRAF dimers using an allosteric site” (Nature Communications, 2020)

What was measured:
BTK = target: T1, BTK (Homo sapiens, UniProt Q06187); test: KINOMEscan scanEDGE binding; settings: KinomeEDGE scan, compound at 1 μΜ
T1 construct: purchased Eurofins/DiscoverX KINOMEscan (scanEDGE panel)

ERBB4 = target: T2, ERBB4 (Homo sapiens, UniProt Q15303); test: KINOMEscan scanEDGE binding; settings: KinomeEDGE scan, compound at 1 μΜ
T2 construct: purchased Eurofins/DiscoverX KINOMEscan (scanEDGE panel)

IKK-beta = target: T3, IKK-beta (Homo sapiens, UniProt O14920); test: KINOMEscan scanEDGE binding; settings: KinomeEDGE scan, compound at 1 μΜ
T3 construct: purchased Eurofins/DiscoverX KINOMEscan (scanEDGE panel)
T3 sequence (O14920 whole entry): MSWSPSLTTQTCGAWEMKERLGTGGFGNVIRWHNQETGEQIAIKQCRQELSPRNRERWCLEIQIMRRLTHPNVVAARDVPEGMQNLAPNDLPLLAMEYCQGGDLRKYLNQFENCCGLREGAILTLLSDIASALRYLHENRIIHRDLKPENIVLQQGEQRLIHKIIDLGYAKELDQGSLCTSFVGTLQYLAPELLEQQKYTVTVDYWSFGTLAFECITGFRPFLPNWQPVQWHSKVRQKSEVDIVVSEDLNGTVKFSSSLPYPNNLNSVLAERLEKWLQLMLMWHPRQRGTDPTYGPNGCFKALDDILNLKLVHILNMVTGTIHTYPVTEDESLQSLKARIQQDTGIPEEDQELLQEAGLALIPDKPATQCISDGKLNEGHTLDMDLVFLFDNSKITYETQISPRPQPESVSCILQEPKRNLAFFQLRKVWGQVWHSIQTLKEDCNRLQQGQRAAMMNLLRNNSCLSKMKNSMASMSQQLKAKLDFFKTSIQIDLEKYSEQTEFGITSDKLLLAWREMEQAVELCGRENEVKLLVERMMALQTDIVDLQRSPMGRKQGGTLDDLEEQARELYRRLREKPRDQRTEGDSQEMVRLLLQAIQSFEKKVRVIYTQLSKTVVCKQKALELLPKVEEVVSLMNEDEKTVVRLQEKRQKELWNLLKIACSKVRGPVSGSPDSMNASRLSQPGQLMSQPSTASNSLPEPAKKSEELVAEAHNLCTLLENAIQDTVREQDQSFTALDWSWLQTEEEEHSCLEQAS

[1] = standard of care dose for CML; cited from earlier work
[2] = target: T4, JAK2(JH1domain-catalytic) (Homo sapiens, UniProt O60674); test: KINOMEscan scanEDGE binding; settings: KinomeEDGE scan, compound at 1 μΜ
T4 construct: JAK2(JH1domain-catalytic); purchased Eurofins/DiscoverX KINOMEscan (scanEDGE panel)

p38-alpha = target: T5, p38-alpha (Homo sapiens, UniProt Q16539); test: KINOMEscan scanEDGE binding; settings: KinomeEDGE scan, compound at 1 μΜ
T5 construct: purchased Eurofins/DiscoverX KINOMEscan (scanEDGE panel)
T5 sequence (Q16539 whole entry): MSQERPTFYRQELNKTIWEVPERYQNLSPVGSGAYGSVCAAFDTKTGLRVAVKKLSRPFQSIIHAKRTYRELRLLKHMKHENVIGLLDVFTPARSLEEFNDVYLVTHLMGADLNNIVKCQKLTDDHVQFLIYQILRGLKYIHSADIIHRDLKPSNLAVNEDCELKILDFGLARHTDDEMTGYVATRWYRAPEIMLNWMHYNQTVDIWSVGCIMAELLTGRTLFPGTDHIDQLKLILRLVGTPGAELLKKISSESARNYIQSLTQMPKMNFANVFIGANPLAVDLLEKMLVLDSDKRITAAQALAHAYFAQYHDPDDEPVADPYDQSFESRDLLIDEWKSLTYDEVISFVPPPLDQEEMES

EGFR = target: T6, EGFR (Homo sapiens, UniProt P00533); test: KINOMEscan scanEDGE binding; settings: KinomeEDGE scan, compound at 1 μΜ
T6 construct: purchased Eurofins/DiscoverX KINOMEscan (scanEDGE panel)

CRAF = target: T7, CRAF (Homo sapiens, UniProt P04049); test: CRAF kinase activity assay (western blot); type: biochemical
T7 construct: purchased Millipore #17-360
T7 sequence (P04049 whole entry, species assumed): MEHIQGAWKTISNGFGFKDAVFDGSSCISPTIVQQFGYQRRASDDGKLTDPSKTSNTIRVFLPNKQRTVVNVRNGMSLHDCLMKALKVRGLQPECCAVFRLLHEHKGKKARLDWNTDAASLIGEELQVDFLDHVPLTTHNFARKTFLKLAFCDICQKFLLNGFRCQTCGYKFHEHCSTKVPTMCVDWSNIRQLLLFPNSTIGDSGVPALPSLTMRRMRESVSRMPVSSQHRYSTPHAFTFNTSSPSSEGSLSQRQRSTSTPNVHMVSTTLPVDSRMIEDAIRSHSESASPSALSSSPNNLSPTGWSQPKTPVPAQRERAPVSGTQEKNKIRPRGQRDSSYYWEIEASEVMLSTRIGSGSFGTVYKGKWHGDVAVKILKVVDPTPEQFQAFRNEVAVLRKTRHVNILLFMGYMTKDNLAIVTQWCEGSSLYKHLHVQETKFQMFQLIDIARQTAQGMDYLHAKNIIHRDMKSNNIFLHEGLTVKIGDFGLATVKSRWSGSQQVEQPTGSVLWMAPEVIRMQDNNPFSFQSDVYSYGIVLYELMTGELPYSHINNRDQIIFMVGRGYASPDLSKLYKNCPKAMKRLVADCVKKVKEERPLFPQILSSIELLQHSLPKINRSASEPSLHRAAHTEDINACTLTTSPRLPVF
Method: (§1) Kinase activity assays were performed using BRAF Kinase Assay Kit (#17-359), CRAF Kinase Assay Kit (#17-360) and MAP Kinase/Erk Assay Kit (#17-191), following protocols by the provider (Millipore) with some modifications. In brief, BRAF and CRAF, and MEK1 recombinant proteins were incubated for 15 min with inhibitors, then corresponding substrates were added and incubated for 30 min at 30 °C and assayed via western blot.

[3] = tested on: melanoma cells dependent on BRAF^V600E, p61BRAF^V600E, and RAS^MUT/BRAF^WT; test: 3D culture colony formation; type: cell-based; settings: 0.1-10 μM, 5th day of culture, compared to Vemurafenib
Method: 3D laminin-rich extracellular matrix cultures were prepared by trypsinization of melanoma cells from tissue culture plastic, seeding of single cells on top of a thin layer of Growth Factor-Reduced Matrigel (BD Biosciences, Franklin Lakes, NJ), and the addition of a medium containing 5% Matrigel. The cells were seeded at the density of 40,000 cells per cm^2. All 3D cell cultures were performed in DMEM supplemented with 5 μg/mL bovine insulin with Zinc (Gibco), 15 μg/mL bovine pituitary extract (Gibco), 0.5 ng/mL epidermal growth factor (Sigma-Aldrich, St. Louis, MO) and 2% fetal bovine serum. 3D cultures were maintained with media and/or drug-treatment changes every second day, and photographs were taken at the end of the 5th day. The size of single cell colonies was estimated with ImageJ (Version 1.51).

[4] = target: T8, TYK2(JH1domain-catalytic) (Homo sapiens, UniProt P29597); test: KINOMEscan scanEDGE binding; settings: KinomeEDGE scan, compound at 1 μΜ
T8 construct: TYK2(JH1domain-catalytic); purchased Eurofins/DiscoverX KINOMEscan (scanEDGE panel)

BRAF^V600E [5] = target: T9, BRAF^V600E (Homo sapiens, UniProt P15056, V600E); test: BRAF kinase activity assay (western blot); type: biochemical; design: purchased Invitrogen (SelectScreen service)
T9 sequence (P15056 whole entry V600E): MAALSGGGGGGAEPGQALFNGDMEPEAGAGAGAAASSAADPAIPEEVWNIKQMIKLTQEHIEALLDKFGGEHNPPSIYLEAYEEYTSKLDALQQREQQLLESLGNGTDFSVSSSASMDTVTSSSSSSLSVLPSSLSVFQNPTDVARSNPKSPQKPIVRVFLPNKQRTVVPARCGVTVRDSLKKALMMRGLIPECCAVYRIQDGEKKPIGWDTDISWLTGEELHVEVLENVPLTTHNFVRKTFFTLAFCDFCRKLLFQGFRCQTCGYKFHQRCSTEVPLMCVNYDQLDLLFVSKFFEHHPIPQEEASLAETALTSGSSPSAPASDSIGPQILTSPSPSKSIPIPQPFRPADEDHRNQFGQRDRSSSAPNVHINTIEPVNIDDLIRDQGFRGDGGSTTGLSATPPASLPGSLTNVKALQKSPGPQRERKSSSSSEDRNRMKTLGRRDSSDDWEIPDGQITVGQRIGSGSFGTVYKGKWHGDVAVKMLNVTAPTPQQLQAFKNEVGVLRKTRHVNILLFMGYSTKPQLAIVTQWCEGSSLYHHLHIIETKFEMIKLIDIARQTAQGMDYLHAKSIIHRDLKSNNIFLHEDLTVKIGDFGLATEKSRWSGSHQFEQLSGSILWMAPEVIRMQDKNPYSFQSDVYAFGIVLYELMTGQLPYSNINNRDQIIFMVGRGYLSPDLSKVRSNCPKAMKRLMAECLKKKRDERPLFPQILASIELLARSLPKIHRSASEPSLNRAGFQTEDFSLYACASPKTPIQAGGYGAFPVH
Method: as §1

EGFR(L858R) = target: T10, EGFR(L858R) (Homo sapiens, UniProt P00533, L858R); test: KINOMEscan scanEDGE binding; settings: KinomeEDGE scan, compound at 1 μΜ
T10 construct: purchased Eurofins/DiscoverX KINOMEscan (scanEDGE panel)

AXL = target: T11, AXL (Homo sapiens, UniProt P30530); test: KINOMEscan scanEDGE binding; settings: KinomeEDGE scan, compound at 1 μΜ
T11 construct: purchased Eurofins/DiscoverX KINOMEscan (scanEDGE panel)

CDK9 = target: T12, CDK9 (Homo sapiens, UniProt P50750); test: KINOMEscan scanEDGE binding; settings: KinomeEDGE scan, compound at 1 μΜ
T12 construct: purchased Eurofins/DiscoverX KINOMEscan (scanEDGE panel)

BRAF^WT = target: T13, BRAF^WT (Homo sapiens, UniProt P15056); test: SelectScreen Z'-LYTE kinase activity assay; type: biochemical; settings: 100 μM ATP
T13 construct: purchased Invitrogen (SelectScreen service)
T13 sequence (P15056 whole entry): as the sequence (P15056 whole entry V600E) above, with E600V counted along it
Method: (§2) BRAF kinase assays were performed using the Z’-LYTE™ enzymatic assay (Invitrogen, USA). […] Titrations were performed using a 1:3 dilution. Assays were performed using SelectScreen (Invitrogen).

[6] = target: BRAF^V600E monomers in A375 cells (Homo sapiens, UniProt P15056, V600E); test: Cellular Thermal Shift Assay (CETSA); type: cell-based; settings: 20 μΜ compound, versus DMSO
Sequence of BRAF^V600E monomers in A375 cells (P15056 whole entry V600E): as the sequence (P15056 whole entry V600E) above
Method: The samples were incubated for 1 h at room temperature, rotating. After compound incubation, samples (50 μL each) were transferred in PCR tubes and incubated for 3 min in a temperature gradient produced with a C1000 thermal cycler (Bio-Rad). Cells were immediately lysed by repeating freeze-thaw cycles (3× times) in liquid nitrogen. […] Equal volumes of supernatants were run on 15-well 4–12% NuPAGE SDS-PAGE gels (Invitrogen), and analyzed by western blot. GAPDH, which is temperature insensitive under these conditions, served as loading control. Results were quantitated by densitometric analysis as described above.

ROCK2 = target: T14, ROCK2 (Homo sapiens, UniProt O75116); test: KINOMEscan scanEDGE binding; settings: KinomeEDGE scan, compound at 1 μΜ
T14 construct: purchased Eurofins/DiscoverX KINOMEscan (scanEDGE panel)
T14 sequence (O75116 whole entry): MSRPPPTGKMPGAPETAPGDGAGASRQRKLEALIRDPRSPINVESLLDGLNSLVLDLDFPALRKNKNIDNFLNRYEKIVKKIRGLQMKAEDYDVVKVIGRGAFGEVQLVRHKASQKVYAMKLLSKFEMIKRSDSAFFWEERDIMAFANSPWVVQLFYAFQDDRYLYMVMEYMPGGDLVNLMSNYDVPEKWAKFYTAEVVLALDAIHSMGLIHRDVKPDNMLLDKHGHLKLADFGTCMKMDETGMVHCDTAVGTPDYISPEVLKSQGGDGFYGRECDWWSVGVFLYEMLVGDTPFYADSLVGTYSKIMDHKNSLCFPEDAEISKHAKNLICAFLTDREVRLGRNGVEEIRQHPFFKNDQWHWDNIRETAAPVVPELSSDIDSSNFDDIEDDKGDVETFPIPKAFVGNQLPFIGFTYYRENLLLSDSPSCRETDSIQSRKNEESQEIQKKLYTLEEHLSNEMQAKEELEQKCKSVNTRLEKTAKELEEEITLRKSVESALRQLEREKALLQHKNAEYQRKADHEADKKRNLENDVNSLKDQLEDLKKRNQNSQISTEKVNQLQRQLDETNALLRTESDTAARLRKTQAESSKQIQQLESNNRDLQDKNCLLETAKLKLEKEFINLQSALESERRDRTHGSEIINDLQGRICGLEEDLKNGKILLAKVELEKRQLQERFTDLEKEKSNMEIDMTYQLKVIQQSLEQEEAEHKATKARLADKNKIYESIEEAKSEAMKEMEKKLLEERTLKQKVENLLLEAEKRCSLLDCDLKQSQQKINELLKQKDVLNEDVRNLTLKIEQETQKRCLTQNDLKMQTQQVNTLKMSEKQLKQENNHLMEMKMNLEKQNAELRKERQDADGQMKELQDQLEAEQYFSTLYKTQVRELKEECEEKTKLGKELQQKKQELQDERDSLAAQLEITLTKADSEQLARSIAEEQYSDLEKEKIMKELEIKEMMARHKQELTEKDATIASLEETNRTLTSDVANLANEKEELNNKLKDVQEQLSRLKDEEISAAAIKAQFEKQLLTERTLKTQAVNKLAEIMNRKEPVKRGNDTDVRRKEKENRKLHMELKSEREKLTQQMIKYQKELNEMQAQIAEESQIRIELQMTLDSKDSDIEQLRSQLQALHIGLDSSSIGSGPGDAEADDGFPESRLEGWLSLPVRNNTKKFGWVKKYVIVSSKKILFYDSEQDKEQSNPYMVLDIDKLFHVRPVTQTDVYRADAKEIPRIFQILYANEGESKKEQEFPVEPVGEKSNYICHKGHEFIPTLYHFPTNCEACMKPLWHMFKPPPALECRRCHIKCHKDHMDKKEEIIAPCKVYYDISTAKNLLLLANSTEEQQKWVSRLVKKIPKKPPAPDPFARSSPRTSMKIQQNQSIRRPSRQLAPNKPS

EPHA = test: KINOMEscan scanEDGE binding; design: species or system human; settings: KinomeEDGE scan, compound at 1 μΜ
KIT = KIT (Homo sapiens, UniProt P10721); test: SelectScreen kinase activity assay; type: biochemical; design: purchased Invitrogen (SelectScreen service); settings: 100 μM ATP
Sequence of KIT (P10721 26-976): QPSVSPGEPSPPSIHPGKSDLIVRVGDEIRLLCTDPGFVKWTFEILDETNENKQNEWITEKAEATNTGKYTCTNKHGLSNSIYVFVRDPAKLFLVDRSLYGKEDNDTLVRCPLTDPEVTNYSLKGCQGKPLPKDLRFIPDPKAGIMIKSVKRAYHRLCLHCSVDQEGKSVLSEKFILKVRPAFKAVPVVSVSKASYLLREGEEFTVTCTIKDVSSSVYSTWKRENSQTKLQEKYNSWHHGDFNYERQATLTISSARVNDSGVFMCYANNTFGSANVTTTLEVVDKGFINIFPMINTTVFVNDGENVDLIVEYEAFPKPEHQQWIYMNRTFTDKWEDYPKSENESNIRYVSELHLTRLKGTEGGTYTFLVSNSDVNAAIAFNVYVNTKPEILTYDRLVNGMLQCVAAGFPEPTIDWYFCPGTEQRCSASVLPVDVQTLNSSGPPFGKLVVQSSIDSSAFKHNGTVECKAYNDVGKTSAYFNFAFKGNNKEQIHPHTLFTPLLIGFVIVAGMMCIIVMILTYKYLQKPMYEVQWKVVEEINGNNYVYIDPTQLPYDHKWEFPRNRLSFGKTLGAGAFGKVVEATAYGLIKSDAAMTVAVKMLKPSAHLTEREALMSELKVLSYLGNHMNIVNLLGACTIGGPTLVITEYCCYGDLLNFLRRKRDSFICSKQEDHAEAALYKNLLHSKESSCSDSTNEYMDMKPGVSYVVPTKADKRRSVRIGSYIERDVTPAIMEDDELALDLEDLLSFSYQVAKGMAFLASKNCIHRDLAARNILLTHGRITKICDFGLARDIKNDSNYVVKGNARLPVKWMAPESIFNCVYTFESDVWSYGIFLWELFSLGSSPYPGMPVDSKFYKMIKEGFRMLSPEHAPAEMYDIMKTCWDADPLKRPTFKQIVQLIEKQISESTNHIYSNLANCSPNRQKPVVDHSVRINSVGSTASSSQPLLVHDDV
Method: as §2

[7] = target: T15, ABL1(E255K)-phosphorylated (Homo sapiens, UniProt P00519, E255K); test: KINOMEscan scanEDGE binding; settings: KinomeEDGE scan, compound at 1 μΜ
T15 construct: purchased Eurofins/DiscoverX KINOMEscan (scanEDGE panel)

BRAF^V600E [8] = target: T9, BRAF^V600E; test: SelectScreen Z'-LYTE kinase activity assay; type: biochemical; design: purchased Invitrogen (SelectScreen service); settings: 100 μM ATP
Method: as §2

FLT3 = target: T16, FLT3 (Homo sapiens, UniProt P36888); test: SelectScreen kinase activity assay; type: biochemical; design: purchased Invitrogen (SelectScreen service); settings: PHI1 versus Ponatinib
T16 sequence (P36888 27-993): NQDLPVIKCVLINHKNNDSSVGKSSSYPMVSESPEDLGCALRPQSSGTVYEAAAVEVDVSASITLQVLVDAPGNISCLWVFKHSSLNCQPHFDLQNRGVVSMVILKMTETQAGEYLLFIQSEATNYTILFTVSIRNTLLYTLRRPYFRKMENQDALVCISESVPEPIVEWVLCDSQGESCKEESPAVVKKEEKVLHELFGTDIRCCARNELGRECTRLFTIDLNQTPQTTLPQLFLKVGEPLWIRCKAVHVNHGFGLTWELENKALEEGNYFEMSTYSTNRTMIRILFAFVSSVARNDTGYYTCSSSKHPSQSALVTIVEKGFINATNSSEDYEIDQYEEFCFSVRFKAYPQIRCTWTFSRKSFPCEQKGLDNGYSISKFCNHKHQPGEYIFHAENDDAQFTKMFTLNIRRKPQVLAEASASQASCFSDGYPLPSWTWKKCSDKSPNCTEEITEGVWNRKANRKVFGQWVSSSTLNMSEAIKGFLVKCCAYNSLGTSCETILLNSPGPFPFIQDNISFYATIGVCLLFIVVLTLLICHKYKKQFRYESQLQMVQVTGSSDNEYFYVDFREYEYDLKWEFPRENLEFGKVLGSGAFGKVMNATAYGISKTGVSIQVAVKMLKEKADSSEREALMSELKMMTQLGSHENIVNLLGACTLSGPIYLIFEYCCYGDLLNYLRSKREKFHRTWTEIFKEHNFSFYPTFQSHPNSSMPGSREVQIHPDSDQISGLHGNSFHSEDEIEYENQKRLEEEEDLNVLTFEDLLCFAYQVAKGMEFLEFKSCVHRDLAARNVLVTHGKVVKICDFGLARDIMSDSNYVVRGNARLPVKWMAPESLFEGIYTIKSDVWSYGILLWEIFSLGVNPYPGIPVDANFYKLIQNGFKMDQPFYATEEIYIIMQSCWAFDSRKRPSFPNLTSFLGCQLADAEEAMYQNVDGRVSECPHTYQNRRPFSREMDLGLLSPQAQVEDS
Method: as §2

For `Cc1ccc(C(=O)Nc2ccc(CN3CCN(C)CC3)c(C(F)(F)F)c2)cc1C#Cc1cnc2cccnn12` [Ponatinib, 3-[2-(imidazo[1,2-b]pyridazin-3-yl)ethynyl]-4-methyl-N-{4-[(4-methylpiperazin-1-yl)methyl]-3-(trifluoromethyl)phenyl}benzamide], the “% Ctrl BTK” value (BTK) was 22 % Ctrl, the “% Ctrl ERBB4” value (ERBB4) was 27 % Ctrl and the “% Ctrl IKK-beta” value (IKK-beta) was 1.4 % Ctrl. For the same molecule, the elimination half-life [1] was greater than 24 h, the maximum plasma levels [1] was ~ 100 nM and the “% Ctrl JAK2(JH1domain-catalytic)” value [2] was 9.5 % Ctrl. For the same molecule, the “% Ctrl p38-alpha” value (p38-alpha) was 0 % Ctrl, the “% Ctrl EGFR” value (EGFR) was 15 % Ctrl and the “inhibition of CRAF kinase activity (in words)” value (CRAF) was “potently inhibited”. The “inhibition of colony formation in 3D culture (in words)” value [3] was “increased efficacy to inhibit colony formation as compared to Vemurafenib”, the “% Ctrl TYK2(JH1domain-catalytic)” value [4] was 8.6 % Ctrl and the “inhibition of MEK phosphorylation by BRAF^V600E (in words)” value (BRAF^V600E [5]) was “potent inhibitor”. For the same molecule, the “% Ctrl EGFR(L858R)” value (EGFR(L858R)) was 19 % Ctrl, the “% Ctrl AXL” value (AXL) was 14 % Ctrl and the “% Ctrl CDK9” value (CDK9) was 28 % Ctrl.
In the case of `Cc1ccc(C(=O)Nc2ccc(CNCCN3CCOCC3)c(C(F)(F)F)c2)cc1C#Cc1cnc2cccnn12` [PHI1], the IC50 (BRAF^WT) is reported as 323 ± 35 nM, the “ΔTm (CETSA)” value [6] is reported as “+3.4 °C” and the “% Ctrl ROCK2” value (ROCK2) is reported as 35 % Ctrl. The “% Ctrl EPHA” value (EPHA) was 14 % Ctrl, the IC50 (KIT) was 548 ± 21 nM and the “% Ctrl ABL1(E255K)-phosphorylated” value [7] was 0.25 % Ctrl. The IC50 (BRAF^V600E [8]) was 10 nM and the “reduction of inhibitory activity on FLT3 compared to Ponatinib” value (FLT3) was “tenfold”.
